The record followed here is patent US9370507B2, “Pyridonyl guanidine F1F0-ATPase inhibitors and therapeutic uses thereof” (Lycera Corporation, priority 2010, dated 2016).

SMILES strings stand for the structures. Where only a bound is given, the exact number is not on record here.

For experiment [1], the target named is T1, F1F0-ATPase (Bos taurus, UniProt P13621).
T1 construct: from tissue
Briefly: Inhibition of F1F0-ATPase activity in synthesizing ATP. Format: biochemical. To be noted: inhibition of ATP synthesis; read-out: ATP Syn IC50. As for the experimental part:
(§1) The compounds listed in Table 4 were tested for activity against F1F0-ATPase by measuring the ability of the compounds to inhibit ATP synthesis. In addition, the compounds were assessed for cytotoxicity in Ramos cells Inhibition of F1F0-ATPase activity in synthesizing ATP and cytotoxicity in Ramos cells were measured according to the procedures described in K. M. Johnson et al. Chemistry & Biology 2005, 12, 485-496.

The test system of experiment [2] is Ramos cells. As to the kind of experiment: Cytotoxicity in Ramos cells. Format: cell-based. Particulars: Homo sapiens, read-out: Ramos Cell EC50. As for the experimental part: as §1

Consider `CC(C)(C)N/C(=N\C(=O)c1ccc(F)c(F)c1)Nc1cccc(O)n1` [Compound A-45], for which the IC50 (commonly the midpoint of a concentration-inhibition curve) in experiment [1] was < 10 µM. For the same molecule, the EC50 (in general, the midpoint of the concentration-response curve) in experiment [2] was < 10 µM.
Turning to `N#Cc1ccccc1S(=O)(=O)Nc1cccc(NC(=NC(=O)c2ccc(Cl)cc2)Nc2cc(F)cc(Cl)c2)n1` [Compound A-142], the IC50 in experiment [1] is < 10 µM. Besides, the EC50 in experiment [2] is < 10 µM.
For the molecule `CC1(N/C(=N/C(=O)c2ccc(Cl)cc2)Nc2cccc(NS(=O)(=O)CC(F)(F)F)n2)CCC1` [Compound A-126], in experiment [1], the IC50 is < 10 µM. The EC50 in experiment [2] was < 10 µM.
Regarding `O=C(/N=C(\Nc1cccc(O)n1)NC1CCOCC1)c1ccc(Cl)cc1` [Compound A-104], the IC50 in experiment [1] is > 10 µM. For the same molecule, the EC50 in experiment [2] is > 10 µM.
With `O=C(/N=C(\Nc1cccc(O)n1)Nc1ccc(F)cc1C1CC1)c1ccc(C(F)(F)F)cc1` [Compound A-12], the IC50 in experiment [1] was < 10 µM. In addition, the EC50 in experiment [2] is < 10 µM.
In the case of `Nc1cccc(N/C(=N\C(=O)c2ccc(F)c(F)c2)Nc2cccc(C(F)(F)F)c2)n1` [Compound A-110], in experiment [1], the IC50 was < 10 µM. The EC50 in experiment [2] is > 10 µM.
On to `CS(=O)(=O)Nc1cccc(N/C(=N\C(=O)c2ccc(F)c(F)c2)Nc2cccc(C(F)(F)F)c2)n1` [Compound A-113], for which the IC50 in experiment [1] is < 10 µM. Also, in experiment [2], the EC50 was < 10 µM.
On to `CC(C)(C)N/C(=N/C(=O)c1ccc(F)c(F)c1)Nc1cccc(NS(=O)(=O)CC(F)(F)F)n1` [Compound A-128], for which, in experiment [1], the IC50 was < 10 µM. The EC50 in experiment [2] is < 10 µM.
For `O=C(/N=C(/NCc1ccc(Cl)cc1F)Nc1cccc(NS(=O)(=O)c2cccnc2)n1)c1ccc(Cl)cc1` [Compound A-148], the IC50 in experiment [1] was < 10 µM. In addition, the EC50 in experiment [2] is < 10 µM.
Consider `CC(=O)Nc1cccc(NC(=NC(=O)c2ccc(Cl)cc2)Nc2cc(F)cc(Cl)c2)n1` [Compound A-140], for which the IC50 in experiment [1] is < 10 µM. Moreover, the EC50 in experiment [2] was > 10 µM.
On the same counts, the results for `O=C(/N=C(/NCc1cc(F)c(F)c(F)c1)Nc1cccc(O)n1)c1ccc(C(F)(F)F)cc1` [Compound A-37] are < 10 µM and < 10 µM.
On the same counts, the results for `O=C(/N=C(/NCc1ccc(Cl)cc1F)Nc1cccc(NS(=O)(=O)c2ccccn2)n1)c1ccc(Cl)cc1` [Compound A-137] are < 10 µM and > 10 µM.
With `O=C(N/C(=N\c1cccc(O)n1)Nc1cccc(Cl)c1)c1ccc(C(F)(F)F)cc1` [Compound A-7], the IC50 in experiment [1] is < 10 µM. The EC50 in experiment [2] was < 10 µM.
As to `O=C(N/C(=N\c1cccc(O)n1)Nc1ccc(F)c(Cl)c1)c1ccc(F)c(F)c1` [Compound A-9], the IC50 in experiment [1] is > 10 µM. Also, in experiment [2], the EC50 was > 10 µM.
`CC1(N/C(=N\C(=O)c2ccc(C(F)(F)F)cc2)Nc2cccc(O)n2)CCC1` [Compound A-47]: the IC50 in experiment [1] is < 10 µM. In addition, the EC50 in experiment [2] is < 10 µM.
Consider `O=C(/N=C(\Nc1cccc(O)n1)NC1CCC1)c1ccc(F)c(F)c1` [Compound A-108], for which the IC50 in experiment [1] was < 10 µM. Besides, the EC50 in experiment [2] is > 10 µM.
On the same counts, the results for `O=C(/N=C(/NCc1cc(F)c(F)c(F)c1)Nc1cccc(O)n1)c1ccc(F)c(F)c1` [Compound A-75] are > 10 µM and > 10 µM.
On the same counts, the results for `CCS(=O)(=O)Nc1cccc(N/C(=N\C(=O)c2ccc(Cl)cc2)Nc2cc(F)cc(Cl)c2)n1` [Compound A-130] are < 10 µM and < 10 µM.
On the same counts, the results for `O=C(/N=C(/NCc1cccc(Cl)c1)Nc1cccc(O)n1)c1ccc(F)c(F)c1` [Compound A-72] are < 10 µM and < 10 µM.
Consider `O=C(/N=C(\Nc1cccc(C(F)(F)F)c1)Nc1cccc(O)n1)c1ccc(C(F)(F)F)cc1` [Compound A-1], for which the IC50 in experiment [1] was < 10 µM. Moreover, the EC50 in experiment [2] was < 10 µM.
In the case of `CC(C)(C)CN/C(=N/C(=O)c1ccc(Cl)cc1)Nc1cccc(NS(=O)(=O)c2cccnc2)n1` [Compound A-144], the IC50 in experiment [1] is < 10 µM. The EC50 in experiment [2] was > 10 µM.
On the same counts, the results for `Cc1cc(CN/C(=N/C(=O)c2ccc(Cl)c(F)c2)Nc2cccc(O)n2)no1` [Compound A-55] are < 10 µM and > 10 µM.
On the same counts, the results for `O=C(/N=C(/NCc1cccc(C(F)(F)F)c1)Nc1cccc(O)n1)c1ccc(F)c(F)c1` [Compound A-74] are < 10 µM and < 10 µM.
Consider `O=C(/N=C(/Nc1cc(F)cc(Cl)c1)Nc1cccc(O)n1)c1ccc(C(F)(F)F)cc1` [Compound A-2], for which, in experiment [1], the IC50 is < 10 µM. For the same molecule, the EC50 in experiment [2] was < 10 µM.
For the molecule `O=C(/N=C(/Nc1cccc(O)n1)NC1CC1)c1ccc(Cl)c(F)c1` [Compound A-50], the IC50 in experiment [1] is < 10 µM. For the same molecule, the EC50 in experiment [2] is > 10 µM.
With `CC1(N/C(=N/C(=O)c2ccc(C(F)(F)F)cc2)Nc2cccc(O)n2)CCCC1` [Compound A-61], the IC50 in experiment [1] was < 10 µM. Besides, the EC50 in experiment [2] was < 10 µM.
As for `O=C(N=C(Nc1cccc(O)n1)NC1CCC(C(F)(F)F)CC1)c1ccc(C(F)(F)F)cc1` (centres unmarked) [Compound A-63], the IC50 in experiment [1] was < 10 µM. Besides, the EC50 in experiment [2] was < 10 µM.
Consider `Cn1cnc(S(=O)(=O)Nc2cccc(N/C(=N\C(=O)c3ccc(Cl)cc3)NCC(C)(C)C)n2)c1` [Compound A-145], for which the IC50 in experiment [1] was > 10 µM. For the same molecule, the EC50 in experiment [2] was > 10 µM.
For `CC(C)(C)N/C(=N/C(=O)c1ccc(Cl)cc1)Nc1cccc(NS(=O)(=O)CC(F)(F)F)n1` [Compound A-124], the IC50 in experiment [1] was < 10 µM. The EC50 in experiment [2] was < 10 µM.
Regarding `N#Cc1ccccc1S(=O)(=O)Nc1cccc(N/C(=N\C(=O)c2ccc(Cl)cc2)NCc2ccc(Cl)cc2F)n1` [Compound A-138], the IC50 in experiment [1] was < 10 µM. In experiment [2], the EC50 was < 10 µM.
Regarding `O=C(/N=C(\Nc1cccc(O)n1)NC1CCOCC1)c1ccc(F)c(F)c1` [Compound A-98], the IC50 in experiment [1] is > 10 µM. Also, the EC50 in experiment [2] is > 10 µM.
With `O=C(N/C(=N\c1cccc(O)n1)Nc1cc(F)cc(Cl)c1)c1ccc(Cl)cc1` [Compound A-8], in experiment [1], the IC50 was < 10 µM. For the same molecule, the EC50 in experiment [2] is < 10 µM.
As for `O=C(/N=C(/Nc1cc(F)cc(Cl)c1)Nc1cccc(O)n1)c1ccc(F)c(F)c1` [Compound A-4], the IC50 in experiment [1] was < 10 µM. The EC50 in experiment [2] was < 10 µM.
With `CCS(=O)(=O)Nc1cccc(N/C(=N\C(=O)c2ccc(F)c(F)c2)NCc2ccccc2C(F)(F)F)n1` [Compound A-150], the IC50 in experiment [1] is < 10 µM. Moreover, the EC50 in experiment [2] was > 10 µM.
On the same counts, the results for `O=C(/N=C(\Nc1cccc(O)n1)NC1CCCOC1)c1ccc(F)c(F)c1` (centres unmarked) [Compound A-99] are > 10 µM and > 10 µM.
For `O=C(/N=C(/NCc1ccccc1C(F)(F)F)Nc1cccc(NS(=O)(=O)C2CC2)n1)c1ccc(C(F)(F)F)cc1` [Compound A-117], the IC50 in experiment [1] was < 10 µM. Besides, in experiment [2], the EC50 is < 10 µM.
For the molecule `O=C(/N=C(/NCc1ccc(C(F)(F)F)cc1)Nc1cccc(O)n1)c1ccc(Cl)cc1` [Compound A-79], the IC50 in experiment [1] was < 10 µM. Also, the EC50 in experiment [2] was < 10 µM.
For `CCS(=O)(=O)Nc1cccc(N/C(=N\C(=O)c2ccc(Cl)cc2)NCc2ccc(Cl)cc2F)n1` [Compound A-132], in experiment [1], the IC50 was < 10 µM. Moreover, the EC50 in experiment [2] was < 10 µM.
On to `CCC(C)(C)N/C(=N/C(=O)c1ccc(C(F)(F)F)cc1)Nc1cccc(O)n1` [Compound A-90], for which the concentration for half-maximal inhibition (IC50) in experiment [1] is < 10 µM. Further, the EC50 in experiment [2] is < 10 µM.
Take `O=C(/N=C(/NCc1ccc(C(F)(F)F)cc1)Nc1cccc(O)n1)c1ccc(C(F)(F)F)cc1` [Compound A-34]: the IC50 in experiment [1] is < 10 µM. For the same molecule, the EC50 in experiment [2] is < 10 µM.
Turning to `O=C(/N=C(/Nc1cccc(O)n1)NC1CC1)c1ccc(F)c(F)c1` [Compound A-49], the half-maximal inhibitory concentration (IC50) in experiment [1] is > 10 µM. Moreover, the EC50 in experiment [2] is > 10 µM.
As to `C[C@@H](N/C(=N/C(=O)c1ccc(F)c(F)c1)Nc1cccc(O)n1)C1CCCCC1` [Compound A-97], the IC50 in experiment [1] is < 10 µM. For the same molecule, the half-maximal effective concentration (EC50) in experiment [2] is < 10 µM.
In the case of `CC(NC(=NC(=O)c1ccc(C(F)(F)F)cc1)Nc1cccc(O)n1)c1ccc(Cl)cc1` (centres unmarked) [Compound A-69], in experiment [1], the IC50 was < 10 µM. In experiment [2], the EC50 is < 10 µM.
Regarding `O=C(/N=C(/Nc1cccc(C(F)(F)F)c1)Nc1cccc(O)n1)c1ccc(Cl)c(F)c1` [Compound A-18], in experiment [1], the IC50 was < 10 µM. For the same molecule, the EC50 in experiment [2] is < 10 µM.
As for `CC(C)(C)CN/C(=N/C(=O)c1ccc(Cl)cc1)Nc1cccc(NS(=O)(=O)c2ccccc2C#N)n1` [Compound A-141], the IC50 in experiment [1] was < 10 µM. The EC50 in experiment [2] was < 10 µM.
For the molecule `COCC(C)N/C(=N/C(=O)c1ccc(Cl)cc1)Nc1cccc(O)n1` (centres unmarked) [Compound A-106], the IC50 in experiment [1] was > 10 µM. In addition, the EC50 in experiment [2] is > 10 µM.
Consider `CCS(=O)(=O)Nc1cccc(N/C(=N\C(=O)c2ccc(Cl)cc2)NCC(C)(C)C)n1` [Compound A-131], for which the IC50 in experiment [1] was < 10 µM. In addition, the EC50 in experiment [2] was < 10 µM.
With `O=C(/N=C(/Nc1cc(F)cc(Cl)c1)Nc1cccc(O)n1)c1cccc(Cl)c1` [Compound A-21], in experiment [1], the IC50 is < 10 µM. Moreover, in experiment [2], the EC50 is < 10 µM.
Regarding `CC(C)(C)CN/C(=N/C(=O)c1ccc(Cl)cc1)Nc1cccc(NC(=O)C(C)(C)C)n1` [Compound A-139], in experiment [1], the IC50 was > 10 µM. In experiment [2], the EC50 is > 10 µM.
Consider `O=C(N=C(Nc1cc(F)cc(Cl)c1)Nc1cccc(NS(=O)(=O)c2cccnc2)n1)c1ccc(Cl)cc1` [Compound A-147], for which the IC50 in experiment [1] was < 10 µM. Also, the EC50 in experiment [2] is < 10 µM.
In the case of `CCOC(=O)Nc1cccc(N/C(=N\C(=O)c2ccc(F)c(F)c2)Nc2cccc(C(F)(F)F)c2)n1` [Compound A-111], in experiment [1], the IC50 was > 10 µM. In addition, the half-maximal effective concentration (EC50) in experiment [2] is > 10 µM.
As for `O=C(/N=C(\Nc1cccc(O)n1)NC1CCOCC1)c1ccc(C(F)(F)F)cc1` [Compound A-92], the IC50 in experiment [1] was < 10 µM. The EC50 in experiment [2] is < 10 µM.
